According to US20200383969A1, “RIMEGEPANT FOR CGRP RELATED DISORDERS” (Biohaven Pharmaceutical Holding Company Ltd., priority 2018, published 2020):

Experiments:
Type in all cases: in vivo, human
[1] = Study 302 (BHV3000-302), Phase 3, rimegepant 75 mg tablet vs placebo, acute treatment of migraine
Source text: Clinical Trial—BHV3000-302 : Phase 3: Double-Blind, Randomized, Placebo-Controlled, Safety and Efficacy Trial of BHV-3000 (Rimegepant) for the Acute Treatment of Migraine (ClinicalTrials.gov Identifier: NCT03237845) • Study Type: Interventional (Clinical Trial) • Actual Enrollment: 1503 participants • Allocation: Randomized • Intervention Model: Parallel Assignment • Intervention Model Description: Double-blind to Sponsor, Investigator and Subject • Masking: Triple (Participant, Care Provider, Investigator) • Masking Description: Double-blind to Sponsor, Investigator and Subject • Primary Purpose: Treatment • Official Title: BHV3000-302: Phase 3: Double-Blind, Randomized, Placebo-Controlled, Safety and Efficacy Trial of BHV-3000 (Rimegepant) for the Acute Treatment of Migraine • Actual Study Start Date : Jul. 26, 2017 • Primary Completion Date : Jan. 25, 2018 • Study Completion Date : Jan. 31, 2018 • 1. Pain Freedom of rimegepant (75 mg tablet) compared with placebo in the acute treatment of migraine will be measured using the number of evaluable subjects that report no pain at 2 hours post-dose. [Time Frame: Two hours post dose] • Pain will be measured on a 4 point Likert scale (0=none, 1=mild, 2=moderate, 3=severe) • 2. Freedom from the most bothersome symptom (MBS) of rimegepant (75 mg tablet) compared with placebo will be measured using the number of evaluable subjects that report the absence of their MBS at 2 hours post-dose. [Time Frame: Two hours post dose] • The MBS (nausea, phonophobia or photophobia) will measured using a binary scale (0=absent, 1=present). • 1. […] [Time Frame: 2 hours -24 hours post-dose] • Sustained Pain Freedom as measured by a 4 point numeric rating scale (None, Mild, Moderate, Severe) • 2. Rimegepant (75 mg tablet) compared to placebo by tabulating the number of subjects that report the absence of photophobia at 2 hours post-dose in the subset of subjects that reported the presence of photophobia at headache baseline. [Time Frame: 2 hours post-dose] • Freedom from Photophobia • 3. Rimegepant (75 mg tablet) compared to placebo by tabulating the number of subjects that report the absence of phonophobia at 2 hours post-dose in the subset of subjects that reported the presence of phonophobia at headache baseline. [Time Frame: 2 hours post-dose] • Freedom from Phonophobia • 4. To measure rimegepant (75 mg tablet) compared to placebo on Pain Relief, at 2 hours post-dose, that report a pain level of moderate or severe at baseline and then report a pain level of none or mild. [Time Frame: 2 hours post-dose] • Pain Relief as measured by a 4 point numeric rating scale (None, Mild, Moderate, Severe) • 5. Freedom from Nausea will by tabulating the number of subjects that report the absence of nausea at 2 hours post-dose in the subset of subjects that reported the presence of nausea at headache baseline. [Time Frame: 2 hours post-dose] • Freedom from Nausea • 6. To measure rimegepant (75 mg tablet) compared to placebo on the probability of requiring rescue medication will be assessed using the number of subjects that take rescue medication within […] administration of study medication (BHV3000 or placebo). [Time Frame: up to 24 hours post-dose] • Requiring Rescue Medication • 7. […] [Time Frame: 2 hours-48 hours post-dose] • Sustained Pain Freedom as measured by a 4 point numeric rating scale (None, Mild, Moderate, Severe) • 8. […] [Time Frame: 2 hours-24 hours post-dose] • Sustained Pain Relief as measured by a 4 point numeric rating scale (None, Mild, Moderate, Severe) • 9. […] [Time Frame: 2 hours-48 hours post-dose] • Sustained Pain Relief as measured by a 4 point numeric rating scale (None, Mild, Moderate, Severe) • 10. Rimegepant (75 mg tablet) relative to placebo on the proportion of subjects able to function normally, at 2 hours, using the number of subjects that self-report as “normal” on the functional disability scale. [Time Frame: 2 hours post-dose] • Functional Disability Score • 11. […]

[2] = Study 201 (BHV3000-201), open label long-term safety study, rimegepant 75 mg, interim analysis
Source text: Clinical Trial-BHV3000-201: Open Label Safety Study in Acute Treatment of Migraine (ClinicalTrials.gov Identifier: NCT 03266588) • Study Type: Interventional (Clinical Trial) • Estimated Enrollment: 2000 participants • Intervention Model: Single Group Assignment • Masking: None (Open Label) • Primary Purpose: Treatment • Official Title: A Multicenter, Open Label Long-Term Safety Study of BHV3000 in the Acute Treatment of Migraine • Actual Study Start Date: Aug. 30, 2017 • Estimated Primary Completion Date: July 2019 • Estimated Study Completion Date: July 2019 • 1. To assess the safety and tolerability of rimegepant (BHV-3000) by measuring the frequency and severity of adverse events and discontinuations due to adverse events [Time Frame: 52 weeks] Number of subjects with treatment-emergent adverse events as assessed through laboratory tests, ECGs, physical exam findings (safety and tolerability) • 1. ALT or […] with total bilirubin>2×ULN [Time Frame: 52 weeks] elevated liver function tests • 2. hepatic related adverse events and hepatic related adverse events that lead to discontinuation [Time Frame: 52 weeks] adverse events related to liver Results from the clinical trial described in Example 10 are summarized as follows. […] Patients were allowed to treat migraine attacks of all severities (mild to severe) up to once daily for a full year. The initial results for hepatic safety and tolerability of rimegepant 75 mg in study participants is based upon review of both adverse events and regularly scheduled liver function tests. Interim hepatic data were reviewed by an external and independent panel of liver experts. […] In the aggregate, it was noted that compared to migraine trials with drugs other than rimegepant, there was a very low incidence of overall elevations of liver function test abnormalities in rimegepant treated patients (1.0% incidence of serum ALT or AST>3× ULN). Subjects will continue to participate in Study 201 with additional data analyses to be submitted in the NDA and required 120-day safety updates. In addition to the interim safety analysis, data from subjects was assessed to determine reductions in the number of headache days per month.

[3] = Pooled adverse event and liver function test data, Studies 301, 302 and 303
[4] = pooled Studies 301, 302, 303, n = 1,771

For `N[C@@H]1c2cccnc2[C@H](OC(=O)N2CCC(n3c(=O)[nH]c4ncccc43)CC2)CC[C@H]1c1cccc(F)c1F` [Rimegepant, [(5S,6S,9R)-5-amino-6-(2,3-difluorophenyl)-6,7,8,9-tetrahydro-5H-cyclohepta[b]pyridin-9-yl] 4-(2-oxo-3H-imidazo[4,5-b]pyridin-1-yl)piperidine-1-carboxylate], the “SAEs related to the study drug” value [1] was “No SAEs”, the “AE nausea, incidence” value ([1]; 75 mg tablet) was 1.8% and the “AE nausea, n/N” value ([1]; 75 mg tablet) was 10/543. The “AE urinary tract infection, incidence” value ([1]; 75 mg tablet) was 1.5%, the “AE urinary tract infection, n/N” value ([1]; 75 mg tablet) was 8/543 and the “Bilirubin elevations greater than 2 times ULN” value ([1]; 75 mg tablet) was “no bilirubin elevations”. For the same molecule, the “Serum ALT or AST > ULN, n/N” value ([1]; 75 mg tablet) was 13/543, the “Serum ALT or AST > ULN, subjects” value ([1]; 75 mg tablet) was 2.4% and the “Transaminase level greater than 3 times ULN” value ([1]; 75 mg tablet) was “No subject”. For the same molecule, the “Normal function at 2 hours (functional disability) vs placebo” value ([1]; P<0.0001) was “greater proportion”, the “Serious AEs, number of subjects” value ([1]; back pain) was 1 and the “Sustained pain relief from 2 through 48 hours postdose vs placebo” value ([1]; single dose, no rescue medication, P<0.0001) was “superiority versus placebo”. The “Sustained pain freedom from 2 through 48 hours postdose vs placebo” value ([1]; single dose, no rescue medication, P=0.0181) was “superiority versus placebo”, the “>=30.0% decrease in migraines (headache days) per month, percent of subjects” value ([2]; Study 201, Overall, n 1731, treatment vs observation phase) was 30.2% and the “Onset of reductions in the mean number of headache days per month” value ([2]; Study 201, continued in subsequent months) was “as early as the first month”. For the same molecule, the “Hy's Law cases” value ([2]; Study 201 interim) was “no Hy's Law cases”, the “Incidence of serum ALT or AST>3× ULN” value ([2]; Study 201 interim) was 1.0% and the “Safety and tolerability of long-term dosing” value ([2]; Study 201 interim analysis, 75 mg up to once daily) was “consistent with the profile observed in phase 1-3 studies to date”. For the same molecule, the Liver safety signal ([2]; Study 201 interim, including near-daily dosing (≥15 doses/month)) was “no liver safety signal detected”, the “Liver cases assessed as probably related to study drug” value ([2]; Study 201 interim, independent panel of liver experts) was “no liver cases” and the “Bilirubin elevations > 2 × ULN” value ([3]; across Studies 301, 302 and 303) was “no patients experienced elevations”. For the same molecule, the “ALT or AST >5 × ULN, patients” value ([3]; pooled Studies 301, 302, 303, AST elevation, not drug-related per investigator) was “(0.06%)^2”, the “ALT or AST >3 × ULN, patients” value [3, 4] was “(0.1%)” and the “ALT or AST >ULN, patients” value [3, 4] was “(2.7%)”.
